Measured values published in patent publication US8828908B2, “Herbicidally active bicyclic 1,3-dione compounds” (Syngenta Limited, priority 2007, dated 2014).

What was measured:
Format in all cases: in vivo
[1] = tested on: Alopecurus myosuroides (ALOMY); assay: Example A pre-emergence herbicidal glasshouse test; settings: 312 h, Rate 250 g/ha, evaluated after 13 days, 100=total damage to plant, 0=no damage to plant
Method: (§1) Seeds of a variety of test species were sown in standard soil in pots. After cultivation for one day (pre-emergence) or after 8 days cultivation (post-emergence) under controlled conditions in a glasshouse (at 24/16° C., day/night; 14 hours light; 65% humidity), the plants were sprayed with an aqueous spray solution derived from the formulation of the technical active ingredient in acetone/water (50:50) solution containing 0.5% Tween 20 (polyoxyethelyene sorbitan monolaurate, CAS RN 9005-64-5). The test plants were then grown in a glasshouse under controlled conditions in a glasshouse (at 24/16° C., day/night; 14 hours light; 65% humidity) and watered twice daily. After 13 days for pre and post-emergence, the test was evaluated (100=total damage to plant; 0=no damage to plant).
(§2) Alopecurus myosuroides (ALOMY), Avena fatua (AVEFA), Setaria faberi (SETFA), Echinochloa crus-galli (ECHCG), Solanum nigrum (SOLNI) and Amaranthus retroflexus (AMARE)

[2] = tested on: Amaranthus retroflexus (AMARE); assay: Example A pre-emergence herbicidal glasshouse test; settings: 312 h, Rate 250 g/ha, evaluated after 13 days, 100=total damage to plant, 0=no damage to plant
Method: as §1, §2

[3] = tested on: Avena fatua (AVEFA); assay: Example A pre-emergence herbicidal glasshouse test; settings: 312 h, Rate 250 g/ha, evaluated after 13 days, 100=total damage to plant, 0=no damage to plant
Method: as §1, §2

[4] = tested on: Echinochloa crus-galli (ECHCG); assay: Example A pre-emergence herbicidal glasshouse test; settings: 312 h, Rate 250 g/ha, evaluated after 13 days, 100=total damage to plant, 0=no damage to plant
Method: as §1, §2

[5] = tested on: Setaria faberi (SETFA); assay: Example A pre-emergence herbicidal glasshouse test; settings: 312 h, Rate 250 g/ha, evaluated after 13 days, 100=total damage to plant, 0=no damage to plant
Method: as §1, §2

[6] = tested on: Alopecurus myosuroides (ALOMY); assay: Example A post-emergence herbicidal glasshouse test; settings: 312 h, evaluated after 13 days, 100=total damage to plant, 0=no damage
Method: as §1, §2

[7] = tested on: Amaranthus retroflexus (AMARE); assay: as above; settings: 312 h, evaluated after 13 days, 100=total damage to plant, 0=no damage
Method: as §1, §2

[8] = tested on: Avena fatua (AVEFA); assay: as above; settings: 312 h, evaluated after 13 days, 100=total damage to plant, 0=no damage
Method: as §1, §2

[9] = tested on: Echinochloa crus-galli (ECHCG); assay: as above; settings: 312 h, evaluated after 13 days, 100=total damage to plant, 0=no damage
Method: as §1, §2

[10] = tested on: Setaria faberi (SETFA); assay: as above; settings: 312 h, evaluated after 13 days, 100=total damage to plant, 0=no damage
Method: as §1, §2

SMILES	pest or weed control at 250 g/ha [1] [%]	pest or weed control at 250 g/ha [2] [%]	pest or weed control at 250 g/ha [3] [%]	pest or weed control at 250 g/ha [4] [%]	pest or weed control at 250 g/ha [5] [%]	pest or weed control at 250 g/ha [6] [%]	pest or weed control at 250 g/ha [7] [%]	pest or weed control at 250 g/ha [8] [%]	pest or weed control at 250 g/ha [9] [%]	pest or weed control at 250 g/ha [10] [%]
CCc1ccc(-c2cc(Cl)ccc2OC)cc1C1=C(O)[C@H]2CC[C@H](C2)C1=O (single isomer, unassigned) [Compound T40]	0	0	0	0	0	0	0	0	0	0
Cc1ccc(-c2ccc(Cl)cc2C(F)(F)F)cc1C1=C(O)[C@H]2CC[C@H](C2)C1=O (single isomer, unassigned) [Compound T42]	0	0	0	0	0	0	0	0	0	0
CCc1ccc(-c2ccc(Cl)cc2C(F)(F)F)cc1C1=C(O)[C@H]2CC[C@H](C2)C1=O (single isomer, unassigned) [Compound T45]	0	0	0	0	0	30	0	0	60	70
Cc1ccc(-c2cccc(Cl)c2F)cc1C1=C(O)[C@H]2CC[C@H](C2)C1=O (single isomer, unassigned) [Compound T46]	0	0	0	0	0	0	0	0	0	0
Cc1ccc(-c2cc(F)cc(Cl)c2)cc1C1=C(O)[C@H]2CC[C@H](C2)C1=O (single isomer, unassigned) [Compound T47]	0	0	0	0	0	0	0	0	30	0
Cc1ccc(-c2cccc(Cl)c2C)cc1C1=C(O)[C@H]2CC[C@H](C2)C1=O (single isomer, unassigned) [Compound T48]	0	0	0	0	0	0	0	20	40	40
Cc1ccc(-c2ccc(C)c(C3=C(O)[C@H]4CC[C@H](C4)C3=O)c2)cc1Cl (single isomer, unassigned) [Compound T49]	0	0	0	30	0	0	0	0	30	30
Cc1ccc(-c2cc(Cl)ccc2C)cc1C1=C(O)[C@H]2CC[C@H](C2)C1=O (single isomer, unassigned) [Compound T50]	0	0	0	0	0	0	0	0	30	0
Cc1ccc(-c2cc(Cl)ccc2Cl)cc1C1=C(O)[C@H]2CC[C@H](C2)C1=O (single isomer, unassigned) [Compound T51]	0	0	0	0	0	0	0	0	0	0
